Earlier results, collected in patent US9532875B2, “Combined space maintenance and bone regeneration system for the reconstruction of large osseous defects” (WILLIAM MARSH RICE UNIVERSITY, priority 2010, dated 2017).

Tested on: susceptible species
Conditions: reported

Colistin sulfate salt
minimum inhibitory concentrations (MICs): 0.5 to 5 µg/mL
